Laboratory results as given in the CheMixHub ionic liquid set.

Test: xn = mol fraction of the nth substance listed

CCCCCCCCCCCCCC[n+]1ccccc1.O=C([O-])C(O)c1ccccc1 + NCC(=O)O + O
electrical conductivity [S/m], 101 kPa
Conditions | 293.15 K | 298.15 K | 303.15 K | 308.15 K | 313.15 K
x1 = 5.26e-06, x2 = 0.001799 | 0.00213 | 0.0024 | 0.00272 | 0.00305 | 0.0034
x1 = 6.85e-06, x2 = 0 | 0.00248 | 0.00278 | 0.00309 | 0.0034 | 0.0037
x1 = 8.31e-06, x2 = 0.0009002 | 0.00273 | 0.00309 | 0.00343 | 0.00385 | 0.0042
x1 = 1.142e-05, x2 = 0.001799 | 0.00389 | 0.00438 | 0.00491 | 0.0055 | 0.006
x1 = 1.319e-05, x2 = 0.0009002 | 0.00415 | 0.0047 | 0.00527 | 0.0058 | 0.0064
x1 = 1.424e-05, x2 = 0 | 0.00472 | 0.00529 | 0.00587 | 0.0065 | 0.0071
x1 = 1.685e-05, x2 = 0.001799 | 0.0054 | 0.0061 | 0.0069 | 0.0076 | 0.0084
x1 = 1.735e-05, x2 = 0.0009002 | 0.00534 | 0.00605 | 0.00678 | 0.0075 | 0.0082
x1 = 2.12e-05, x2 = 0.001799 | 0.0066 | 0.0075 | 0.0084 | 0.0093 | 0.0102
x1 = 2.126e-05, x2 = 0 | 0.00671 | 0.0076 | 0.0084 | 0.0093 | 0.0101
x1 = 2.367e-05, x2 = 0.0009002 | 0.00703 | 0.008 | 0.0089 | 0.0099 | 0.0108
x1 = 2.591e-05, x2 = 0.001799 | 0.00789 | 0.009 | 0.01 | 0.0111 | 0.0122
x1 = 2.811e-05, x2 = 0 | 0.0086 | 0.0097 | 0.0108 | 0.0122 | 0.0131
x1 = 2.982e-05, x2 = 0.0009002 | 0.0088 | 0.0098 | 0.011 | 0.0122 | 0.0134
x1 = 3.081e-05, x2 = 0.001799 | 0.0092 | 0.0104 | 0.0117 | 0.013 | 0.0143
x1 = 3.46e-05, x2 = 0 | 0.0103 | 0.0116 | 0.0129 | 0.0145 | 0.0157
x1 = 3.668e-05, x2 = 0.0009002 | 0.0104 | 0.0118 | 0.0132 | 0.0146 | 0.0161
x1 = 3.679e-05, x2 = 0.001799 | 0.0106 | 0.012 | 0.0134 | 0.015 | 0.0166
x1 = 4.108e-05, x2 = 0 | 0.0117 | 0.0131 | 0.0146 | 0.0161 | 0.0179
x1 = 4.337e-05, x2 = 0.0009001 | 0.0117 | 0.0131 | 0.0148 | 0.0165 | 0.0183
x1 = 4.367e-05, x2 = 0.001799 | 0.0119 | 0.0134 | 0.015 | 0.0168 | 0.0186
x1 = 4.811e-05, x2 = 0 | 0.0129 | 0.0144 | 0.0161 | 0.0179 | 0.0198
x1 = 4.951e-05, x2 = 0.0009001 | 0.0126 | 0.0143 | 0.0159 | 0.0178 | 0.0198
x1 = 5.11e-05, x2 = 0.001799 | 0.0131 | 0.0148 | 0.0166 | 0.0186 | 0.0206
x1 = 5.388e-05, x2 = 0 | 0.0137 | 0.0154 | 0.0172 | 0.0191 | 0.0211
x1 = 5.602e-05, x2 = 0.0009001 | 0.0135 | 0.0153 | 0.0171 | 0.0191 | 0.0212
x1 = 5.726e-05, x2 = 0.001799 | 0.014 | 0.0158 | 0.0176 | 0.0198 | 0.0219
x1 = 5.982e-05, x2 = 0 | 0.0145 | 0.0163 | 0.0182 | 0.0202 | 0.0224
x1 = 6.216e-05, x2 = 0.0009001 | 0.0144 | 0.0162 | 0.0181 | 0.0202 | 0.0224
x1 = 6.361e-05, x2 = 0.001799 | 0.0149 | 0.0167 | 0.0187 | 0.0209 | 0.0232
x1 = 6.559e-05, x2 = 0 | 0.0153 | 0.0172 | 0.0192 | 0.0213 | 0.0236
x1 = 6.885e-05, x2 = 0.0009001 | 0.0154 | 0.0172 | 0.0192 | 0.0214 | 0.0239
x1 = 6.959e-05, x2 = 0.001799 | 0.0156 | 0.0176 | 0.0197 | 0.0221 | 0.0245
x1 = 7.081e-05, x2 = 0 | 0.016 | 0.018 | 0.02 | 0.0223 | 0.0246
x1 = 7.463e-05, x2 = 0.0009001 | 0.0161 | 0.0181 | 0.0202 | 0.0225 | 0.0251
x1 = 7.593e-05, x2 = 0.001799 | 0.0165 | 0.0185 | 0.0207 | 0.0233 | 0.0258
x1 = 7.604e-05, x2 = 0 | 0.0167 | 0.0187 | 0.0209 | 0.0232 | 0.0258
x1 = 8.023e-05, x2 = 0.0009001 | 0.0168 | 0.0189 | 0.0211 | 0.0237 | 0.0263
x1 = 8.072e-05, x2 = 0 | 0.0173 | 0.0194 | 0.0217 | 0.0241 | 0.0266

CC(=O)[O-].CC[NH2+]CC + O
Conditions | electrical conductivity [S/m] | viscosity [mPa·s]
283.15 K, 100.9 kPa, x1 = 0.168 | – | 27.4
283.15 K, 100.9 kPa, x1 = 0.24 | – | 55.1
283.15 K, 100.9 kPa, x1 = 0.351 | – | 92.3
288.15 K, 100.9 kPa, x1 = 0.549 | – | 105
295.65 K, 100.9 kPa, x1 = 0.168 | – | 14.67
298.15 K, 101 kPa, x1 = 0.0174 | 2.06 | –
298.15 K, 101 kPa, x1 = 0.0967 | 2.21 | –
298.15 K, 101 kPa, x1 = 0.199 | – | 14.82
298.15 K, 101 kPa, x1 = 0.1997 | 1.52 | –
298.15 K, 101 kPa, x1 = 0.6989 | 0.361 | –
298.15 K, 101 kPa, x1 = 0.877 | – | 57.2
300.65 K, 100.9 kPa, x1 = 0.168 | – | 11.78
303.15 K, 100.9 kPa, x1 = 0.168 | 2.24 | 10.62
303.15 K, 100.9 kPa, x1 = 0.351 | – | 30.6
305.65 K, 100.9 kPa, x1 = 0.24 | – | 17.47
310.65 K, 100.9 kPa, x1 = 0.24 | – | 14.12
310.65 K, 100.9 kPa, x1 = 0.549 | – | 32.6
313.15 K, 100.9 kPa, x1 = 0.549 | – | 29.2
315.65 K, 100.9 kPa, x1 = 0.119 | – | 4.25
315.65 K, 100.9 kPa, x1 = 0.168 | – | 6.65
315.65 K, 100.9 kPa, x1 = 0.714 | – | 30.1
318.15 K, 100.9 kPa, x1 = 0.007 | 2.25 | –
318.15 K, 100.9 kPa, x1 = 0.353 | 1.34 | –
328.15 K, 100.9 kPa, x1 = 0.015 | – | 0.728
328.15 K, 100.9 kPa, x1 = 0.549 | – | 16.18
330.65 K, 100.9 kPa, x1 = 0.015 | – | 0.692
330.65 K, 100.9 kPa, x1 = 0.055 | – | 1.339
330.65 K, 100.9 kPa, x1 = 0.119 | – | 2.78
330.65 K, 100.9 kPa, x1 = 0.168 | – | 4.17
333.15 K, 100.9 kPa, x1 = 0.007 | 2.64 | –
333.15 K, 100.9 kPa, x1 = 0.119 | – | 2.61
333.15 K, 100.9 kPa, x1 = 0.351 | – | 9.26
333.15 K, 100.9 kPa, x1 = 0.55 | 1.07 | –
333.15 K, 100.9 kPa, x1 = 0.84 | – | 15.7
335.65 K, 100.9 kPa, x1 = 0.168 | – | 3.63
340.65 K, 100.9 kPa, x1 = 0.168 | – | 3.19
343.15 K, 100.9 kPa, x1 = 0.055 | – | 1.052
348.15 K, 100.9 kPa, x1 = 0.353 | 2.81 | –
348.15 K, 100.9 kPa, x1 = 0.55 | 1.68 | –
348.15 K, 100.9 kPa, x1 = 0.714 | 1.3 | –
348.15 K, 100.9 kPa, x1 = 0.838 | 1.11 | –
363.15 K, 100.9 kPa, x1 = 0.168 | 9.08 | –
363.15 K, 100.9 kPa, x1 = 0.945 | 1.27 | –
